Data on 2 molecules can be found in ChEMBL document CHEMBL1287752, “Changes in flavonoid content and tyrosinase inhibitory activity in kenaf leaf extract after far-infrared treatment” (Bioorg Med Chem Lett, 2010).

One test has as its target T1, Tyrosinase (Agaricus bisporus, UniProt O42713).
T1 sequence (O42713 whole entry): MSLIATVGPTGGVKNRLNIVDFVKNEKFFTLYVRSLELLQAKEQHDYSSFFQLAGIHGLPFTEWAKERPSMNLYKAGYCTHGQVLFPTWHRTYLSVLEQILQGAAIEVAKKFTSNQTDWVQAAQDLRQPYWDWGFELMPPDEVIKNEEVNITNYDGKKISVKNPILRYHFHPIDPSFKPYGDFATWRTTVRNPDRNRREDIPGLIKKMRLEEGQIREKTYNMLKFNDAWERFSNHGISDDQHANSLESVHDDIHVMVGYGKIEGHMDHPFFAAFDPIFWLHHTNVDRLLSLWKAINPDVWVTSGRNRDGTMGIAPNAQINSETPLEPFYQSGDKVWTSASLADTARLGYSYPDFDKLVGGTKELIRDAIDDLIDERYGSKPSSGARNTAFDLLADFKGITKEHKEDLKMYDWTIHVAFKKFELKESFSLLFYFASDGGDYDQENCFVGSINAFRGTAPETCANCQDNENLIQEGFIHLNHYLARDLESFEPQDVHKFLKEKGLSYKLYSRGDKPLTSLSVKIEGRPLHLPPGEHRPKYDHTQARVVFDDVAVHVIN
Description: Inhibition of mushroom tyrosinase after 20 mins by spectrophotometric analysis.

Test [1] addresses T2, Tyrosinase (Agaricus bisporus) (UniProt O42713).
T2 sequence (whole entry): T1 sequence (O42713 whole entry)
The following applies: 400 uM.
Description: Inhibition of mushroom tyrosinase at 400 uM after 20 mins by spectrophotometric analysis

With `C[C@@H]1O[C@@H](Oc2cc(O)c3c(=O)c(O)c(-c4ccc(O)cc4)oc3c2)[C@H](O)[C@H](O)[C@H]1O` [ALPHA-RHAMNOISOROBIN], the IC50 – broadly, the midpoint of a concentration-inhibition curve – against Tyrosinase was greater than 400 µM. Moreover, the inhibition – broadly, the share of the control response that was lost under treatment – in test [1] was less than 39.1%.

On Tyrosinase, `O=c1c(O)c(-c2ccc(O)cc2)oc2cc(O)cc(O)c12` [KAEMPFEROL] had a half-inhibitory concentration (IC50) of 171 µM.
